Assay [1] addresses cyclase (RINm5f membranes). As to the kind of experiment: Cyclase activation study (cAMP by SPA immunoassay, membranes). The assay is classed as biochemical. The note with it: cAMP in membranes, 20 minutes incubation at 37° C. The procedure:
GLP-1(7-36) [NH2] was purchased from Bachem (Torrance, Calif.). All other peptides were prepared using synthesis methods such as those described therein. All chemicals were of the highest commercial grade. The cAMP SPA immunoassay was purchased from Amersham. The radioligands were purchased from New England Nuclear (Boston, Mass.). […] Cells were grown to confluence then harvested and homogenized using on a Polytron homogenizer. Cell homogenates were stored frozen at −70° C. until used. […] Membranes and peptides were combined in […] of assay buffer in 96 well filter-bottom plates (Millipore Corp., Bedford, Mass.). […] Supernatant cAMP contents were quantitated by SPA immunoassay. […] The biological activity of a particular sample was expressed as an EC50 value, calculated as described above.

For assay [2], the system named is C57BLKS/J-m-db mice. The assay can be described thus: Determination of blood glucose levels in db/db mice. The assay is classed as in vivo. The note with it: 1 μg subcutaneous, plasma glucose one hour after injection vs baseline.

For the molecule `CC[C@H](C)[C@H](NC(=O)[C@H](Cc1ccccc1)NC(=O)[C@H](CC(C)C)NC(=O)[C@H](CCCNC(=N)N)NC(=O)[C@H](C)NC(=O)[C@H](C)NC(=O)[C@H](CCC(=O)O)NC(=O)[C@H](CCC(=O)O)NC(=O)[C@H](CCC(=O)O)NC(=O)[C@H](CC(C)C)NC(=O)[C@H](CCC(N)=O)NC(=O)[C@H](CCCCN)NC(=O)[C@H](CO)NC(=O)[C@H](CC(C)C)NC(=O)[C@H](CC(=O)O)NC(=O)[C@H](CO)NC(=O)[C@@H](NC(=O)[C@H](Cc1ccccc1)NC(=O)[C@@H](NC(=O)CNC(=O)[C@H](CCC(=O)O)NC(=O)CNC(=O)[C@@H](N)Cc1c[nH]cn1)[C@@H](C)O)[C@@H](C)O)C(=O)N[C@@H](CCC(=O)O)C(=O)N[C@@H](Cc1ccccc1)C(=O)N[C@@H](CC(C)C)C(=O)N[C@@H](CCCCN)C(=O)N[C@@H](CC(N)=O)C(N)=O` [Compound 16], the EC50 in assay [1] came out at 5.12 nM. In addition, in assay [2], the “% drop in glucose” value is 54%.
The matching figures for `CC[C@H](C)[C@H](NC(=O)[C@H](Cc1ccccc1)NC(=O)[C@H](CC(C)C)NC(=O)[C@H](CCCNC(=N)N)NC(=O)[C@@H](NC(=O)[C@H](C)NC(=O)[C@H](CCC(=O)O)NC(=O)[C@H](CCC(=O)O)NC(=O)[C@H](CCC(=O)O)NC(=O)[C@H](CC(C)C)NC(=O)[C@H](CCC(N)=O)NC(=O)[C@H](CCCCN)NC(=O)[C@H](CO)NC(=O)[C@H](CC(C)C)NC(=O)[C@H](CC(=O)O)NC(=O)[C@H](CO)NC(=O)[C@@H](NC(=O)[C@H](C)NC(=O)[C@@H](NC(=O)CNC(=O)[C@H](CCC(=O)O)NC(=O)CNC(=O)[C@@H](N)Cc1c[nH]cn1)[C@@H](C)O)[C@@H](C)O)C(C)C)C(=O)N[C@@H](CCC(=O)O)C(=O)N[C@@H](Cc1ccccc1)C(=O)N[C@@H](CC(C)C)C(=O)N[C@@H](CCCCN)C(=O)N[C@@H](CC(N)=O)C(N)=O` [Compound 6]: 79.4 nM and 40%.
The matching figures for `CC[C@H](C)[C@H](NC(=O)[C@H](Cc1ccccc1)NC(=O)[C@H](CC(C)C)NC(=O)[C@H](CCCNC(=N)N)NC(=O)[C@@H](NC(=O)[C@H](C)NC(=O)[C@H](CCC(=O)O)NC(=O)[C@H](CCC(=O)O)NC(=O)[C@H](CCC(=O)O)NC(=O)[C@H](CC(C)C)NC(=O)[C@H](CCC(N)=O)NC(=O)[C@H](CCCCN)NC(=O)[C@H](CO)NC(=O)[C@H](CC(C)C)NC(=O)[C@H](CC(=O)O)NC(=O)[C@H](C)NC(=O)[C@@H](NC(=O)[C@H](Cc1ccccc1)NC(=O)[C@@H](NC(=O)CNC(=O)[C@H](CCC(=O)O)NC(=O)CNC(=O)[C@@H](N)Cc1c[nH]cn1)[C@@H](C)O)[C@@H](C)O)C(C)C)C(=O)N[C@@H](CCC(=O)O)C(=O)N[C@@H](Cc1ccccc1)C(=O)N[C@@H](CC(C)C)C(=O)N[C@@H](CCCCN)C(=O)N[C@@H](CC(N)=O)C(N)=O` [Compound 7]: 63.6 nM and 31%.

As usually defined, the EC50 is the concentration at which the effect is half-maximal.

These data come from patent publication US7696161B2, “Exendin agonist compounds” (Amylin Pharmaceuticals, Inc., priority 1997, dated 2010).
